# How the values were obtained:
# Experiment in all cases: relative viability (nuclei count vs DMSO), 5 days (fraction); higher = more cells survive
# NCI-H1915 = system: NCI-H1915
# Method in brief: (§1)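 Values are medians from duplicate plates. Each reflects relative viability, defined as the nuclei count of treated wells over that of vehicle wells. Lung cancer cell lines in 1536-well plates were pin-tool dosed one day after seeding with one drug alone or with a fixed anchor-drug dose plus five library-drug doses (not always all listed) in √10 steps, then fixed, stained and imaged at 4× after 5 days.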
# NCI-H1993 = system: NCI-H1993
# Method in brief: as §1
# HARA = system: HARA
# Method in brief: as §1
# NCI-H2023 = system: NCI-H2023
# Method in brief: as §1
# NCI-H2085 = system: NCI-H2085
# Method in brief: as §1
# LC-2-ad = system: LC-2-ad
# Method in brief: as §1
# NCI-H1355 = system: NCI-H1355
# Method in brief: as §1
# EPLC-272H = system: EPLC-272H
# Method in brief: as §1
# NCI-H1651 = system: NCI-H1651
# Method in brief: as §1
# HCC-15 = system: HCC-15
# Method in brief: as §1
# HCC-78 = system: HCC-78
# Method in brief: as §1
# SW 1573 = system: SW 1573
# Method in brief: as §1
# NCI-H2126 = system: NCI-H2126
# Method in brief: as §1
# NCI-H2347 = system: NCI-H2347
# Method in brief: as §1
# PC-14 = system: PC-14
# Method in brief: as §1
# UMC-11 = system: UMC-11
# Method in brief: as §1
# COR-L23 = system: COR-L23
# Method in brief: as §1
# NCI-H838 = system: NCI-H838
# Method in brief: as §1
# LU99A = system: LU99A
# Method in brief: as §1
smiles,measurement,setting,value
NC(=O)Nc1cc(-c2cccc(F)c2)sc1C(=O)N[C@H]1CCCNC1 [AZD7762] + CC1(C)CCC(c2ccc(Cl)cc2)=C(CN2CCN(c3ccc(C(=O)NS(=O)(=O)c4ccc(N[C@H](CCN5CCOCC5)CSc5ccccc5)c(S(=O)(=O)C(F)(F)F)c4)cc3)CC2)C1 [Navitoclax] (partner 0.5 µM),relative viability,NCI-H1915; first compound 0.01 µM,0.783
same,relative viability,NCI-H1915; first compound 0.03162 µM,0.78
same,relative viability,NCI-H1915; first compound 0.1 µM,0.784
same,relative viability,NCI-H1915; first compound 0.3162 µM,0.806
same,relative viability,NCI-H1915; first compound 1 µM,0.672
same,relative viability,NCI-H1993; first compound 0.01 µM,0.943
same,relative viability,NCI-H1993; first compound 0.03162 µM,1.04
same,relative viability,NCI-H1993; first compound 0.1 µM,0.846
same,relative viability,NCI-H1993; first compound 0.3162 µM,0.983
same,relative viability,NCI-H1993; first compound 1 µM,0.823
same,relative viability,HARA; first compound 0.01 µM,1.12
same,relative viability,HARA; first compound 0.03162 µM,1.15
same,relative viability,HARA; first compound 0.1 µM,1.2
same,relative viability,HARA; first compound 0.3162 µM,1.12
same,relative viability,HARA; first compound 1 µM,0.801
same,relative viability,NCI-H2023; first compound 0.01 µM,0.992
same,relative viability,NCI-H2023; first compound 0.03162 µM,0.771
same,relative viability,NCI-H2023; first compound 0.1 µM,0.663
same,relative viability,NCI-H2023; first compound 0.3162 µM,0.287
same,relative viability,NCI-H2023; first compound 1 µM,0.118
same,relative viability,NCI-H2085; first compound 0.01 µM,1.27
same,relative viability,NCI-H2085; first compound 0.03162 µM,1.11
same,relative viability,NCI-H2085; first compound 0.1 µM,1.24
same,relative viability,NCI-H2085; first compound 0.3162 µM,1.25
same,relative viability,NCI-H2085; first compound 1 µM,1.03
same,relative viability,LC-2-ad; first compound 0.01 µM,0.491
same,relative viability,LC-2-ad; first compound 0.03162 µM,0.476
same,relative viability,LC-2-ad; first compound 0.1 µM,0.415
same,relative viability,LC-2-ad; first compound 0.3162 µM,0.414
same,relative viability,LC-2-ad; first compound 1 µM,0.309
same,relative viability,NCI-H1355; first compound 0.01 µM,0.879
same,relative viability,NCI-H1355; first compound 0.03162 µM,1.07
same,relative viability,NCI-H1355; first compound 0.1 µM,0.946
same,relative viability,NCI-H1355; first compound 0.3162 µM,1.01
same,relative viability,NCI-H1355; first compound 1 µM,0.914
same,relative viability,EPLC-272H; first compound 0.01 µM,1.17
same,relative viability,EPLC-272H; first compound 0.03162 µM,1.18
same,relative viability,EPLC-272H; first compound 0.1 µM,1.15
same,relative viability,EPLC-272H; first compound 0.3162 µM,1.37
same,relative viability,EPLC-272H; first compound 1 µM,0.783
same,relative viability,NCI-H1651; first compound 0.01 µM,1.16
same,relative viability,NCI-H1651; first compound 0.03162 µM,0.964
same,relative viability,NCI-H1651; first compound 0.1 µM,0.922
same,relative viability,NCI-H1651; first compound 0.3162 µM,0.855
same,relative viability,NCI-H1651; first compound 1 µM,0.283
same,relative viability,HCC-15; first compound 0.01 µM,0.663
same,relative viability,HCC-15; first compound 0.03162 µM,0.708
same,relative viability,HCC-15; first compound 0.1 µM,0.771
same,relative viability,HCC-15; first compound 0.3162 µM,0.728
same,relative viability,HCC-15; first compound 1 µM,0.789
same,relative viability,HCC-78; first compound 0.01 µM,0.822
same,relative viability,HCC-78; first compound 0.03162 µM,0.807
same,relative viability,HCC-78; first compound 0.1 µM,0.792
same,relative viability,HCC-78; first compound 0.3162 µM,0.714
same,relative viability,HCC-78; first compound 1 µM,0.401
same,relative viability,SW 1573; first compound 0.01 µM,1.19
same,relative viability,SW 1573; first compound 0.03162 µM,1.12
same,relative viability,SW 1573; first compound 0.1 µM,1.21
same,relative viability,SW 1573; first compound 0.3162 µM,0.764
same,relative viability,SW 1573; first compound 1 µM,0.887
same,relative viability,NCI-H2126; first compound 0.01 µM,0.811
same,relative viability,NCI-H2126; first compound 0.03162 µM,0.866
same,relative viability,NCI-H2126; first compound 0.1 µM,0.889
same,relative viability,NCI-H2126; first compound 0.3162 µM,0.79
same,relative viability,NCI-H2126; first compound 1 µM,0.91
same,relative viability,NCI-H2347; first compound 0.01 µM,0.829
same,relative viability,NCI-H2347; first compound 0.03162 µM,0.934
same,relative viability,NCI-H2347; first compound 0.1 µM,0.935
same,relative viability,NCI-H2347; first compound 0.3162 µM,0.991
same,relative viability,NCI-H2347; first compound 1 µM,0.982
same,relative viability,PC-14; first compound 0.01 µM,1.09
same,relative viability,PC-14; first compound 0.03162 µM,1.02
same,relative viability,PC-14; first compound 0.1 µM,1.02
same,relative viability,PC-14; first compound 0.3162 µM,0.895
same,relative viability,PC-14; first compound 1 µM,0.512
same,relative viability,UMC-11; first compound 0.01 µM,0.312
same,relative viability,UMC-11; first compound 0.03162 µM,0.32
same,relative viability,UMC-11; first compound 0.1 µM,0.272
same,relative viability,UMC-11; first compound 0.3162 µM,0.307
same,relative viability,UMC-11; first compound 1 µM,0.21
same,relative viability,COR-L23; first compound 0.01 µM,1.28
same,relative viability,COR-L23; first compound 0.03162 µM,1.01
same,relative viability,COR-L23; first compound 0.1 µM,1.01
same,relative viability,COR-L23; first compound 0.3162 µM,0.891
same,relative viability,COR-L23; first compound 1 µM,0.194
same,relative viability,NCI-H838; first compound 0.01 µM,1.19
same,relative viability,NCI-H838; first compound 0.03162 µM,1.15
same,relative viability,NCI-H838; first compound 0.1 µM,1.09
same,relative viability,NCI-H838; first compound 0.3162 µM,1.03
same,relative viability,NCI-H838; first compound 1 µM,0.576
same,relative viability,LU99A; first compound 0.01 µM,0.81
same,relative viability,LU99A; first compound 0.03162 µM,0.869
same,relative viability,LU99A; first compound 0.1 µM,0.718
same,relative viability,LU99A; first compound 0.3162 µM,0.665
same,relative viability,LU99A; first compound 1 µM,0.514
